Results on 31 compounds are retold here after patent US9493446B2, “Orexin receptor antagonists which are [ortho bi-(hetero-)aryl]-[2-(meta bi-(hetero-)aryl)-pyrrolidin-1-yl]-methanone derivatives” (Actelion Pharmaceuticals Ltd, priority 2012, dated 2016).

One experiment addresses orexin-1 (Homo sapiens (Human), UniProt O43613). The experiment in a line: Intracellular calcium measurement (FLIPR), CHO cells expressing human orexin-1 receptor, 3 nM orexin-A. As to conditions: read-out: IC50 OX1. The format is cell-based. The procedure, abridged: (§1)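 HBSS buffer with 0.1% BSA, NaHCO3 and 20 mM HEPES carries both compounds and agonist. Dye: fluo-4 AM (3 μM) with 5 mM probenecid. Compound exposure 120 min; peak signal scored against uninhibited orexin-A response.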
In general terms: Calcium assays in cells follow changes in intracellular calcium, usually with a dye or a luminescent sensor.

The next experiment deals with human orexin-2 receptor (Homo sapiens (Human), UniProt O43614). The experiment in a line: Intracellular calcium measurement (FLIPR), CHO cells expressing human orexin-2 receptor, 3 nM orexin-A. As to conditions: read-out: IC50 OX2. The format is cell-based. In short, it runs like this: as §1
The mark [1] stands for this setting: CHO cells expressing human orexin-1 receptor, FLIPR, 3 nM orexin-A, geometric mean if determined several times.
Setting [2] is: CHO cells expressing human orexin-2 receptor, FLIPR, 3 nM orexin-A, geometric mean if determined several times.

SMILES strings stand for the structures. Read-outs that look alike come from different tables or passages of the source.

orexin-1, sequence (O43613 whole entry): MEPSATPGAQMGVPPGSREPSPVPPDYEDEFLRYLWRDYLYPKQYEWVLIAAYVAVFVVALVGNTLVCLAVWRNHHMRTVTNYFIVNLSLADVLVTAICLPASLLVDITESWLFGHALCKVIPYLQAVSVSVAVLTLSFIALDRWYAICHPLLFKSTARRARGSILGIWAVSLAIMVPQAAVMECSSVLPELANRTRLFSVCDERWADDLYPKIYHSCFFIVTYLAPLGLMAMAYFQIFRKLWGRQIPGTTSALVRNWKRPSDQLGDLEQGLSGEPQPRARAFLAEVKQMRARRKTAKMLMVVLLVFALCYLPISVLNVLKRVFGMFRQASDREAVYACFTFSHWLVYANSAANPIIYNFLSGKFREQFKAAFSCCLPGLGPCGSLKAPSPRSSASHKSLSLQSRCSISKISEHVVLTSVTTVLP
human orexin-2 receptor, sequence (O43614 whole entry): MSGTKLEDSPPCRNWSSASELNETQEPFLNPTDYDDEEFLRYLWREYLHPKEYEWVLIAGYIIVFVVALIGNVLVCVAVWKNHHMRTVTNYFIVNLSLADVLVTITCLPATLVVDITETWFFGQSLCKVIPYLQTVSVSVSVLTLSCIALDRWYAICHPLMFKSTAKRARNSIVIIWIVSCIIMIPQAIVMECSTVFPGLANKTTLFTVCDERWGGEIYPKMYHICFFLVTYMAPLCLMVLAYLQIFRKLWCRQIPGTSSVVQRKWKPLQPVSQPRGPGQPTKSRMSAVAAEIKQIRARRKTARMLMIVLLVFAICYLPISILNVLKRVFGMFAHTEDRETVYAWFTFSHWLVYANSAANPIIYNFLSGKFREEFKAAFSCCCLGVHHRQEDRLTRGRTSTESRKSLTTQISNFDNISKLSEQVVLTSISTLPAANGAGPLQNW

On to `CCOc1ncccc1-c1noc([C@@H]2CCCN2C(=O)c2ccc(C)cc2-n2nccn2)n1` [compound 211, {(S)-2-[3-(2-Ethoxy-pyridin-3-yl)-[1,2,4]oxadiazol-5-yl]-pyrrolidin-1-yl}-(4-methyl-2-[1,2,3]triazol-2-yl-phenyl)-methanone], for which the half-maximal inhibitory concentration (IC50) – broadly, the concentration that inhibits the measured activity by half – at orexin-1 (setting [1]) was 81 nM; at human orexin-2 receptor (setting [2]), 37 nM.

Consider `CCOc1ncccc1-c1noc([C@@H]2CCCN2C(=O)c2cc(C)c(C)cc2-n2nccn2)n1` [compound 212, (4,5-Dimethyl-2-[1,2,3]triazol-2-yl-phenyl)-{(S)-2-[3-(2-ethoxy-pyridin-3-yl)-[1,2,4]oxadiazol-5-yl]-pyrrolidin-1-yl}-methanone], for which the values for the IC50 at orexin-1 (setting [1]) and on human orexin-2 receptor (setting [2]) were 6 nM and 3 nM, respectively.

`CCOc1ncccc1-c1noc([C@@H]2CCCN2C(=O)c2nc(C)ccc2-n2nccn2)n1` [compound 213, {(S)-2-[3-(2-Ethoxy-pyridin-3-yl)-[1,2,4]oxadiazol-5-yl]-pyrrolidin-1-yl}-(6-methyl-3-[1,2,3]triazol-2-yl-pyridin-2-yl)-methanone]: the IC50 at orexin-1 (setting [1]) came to 169 nM; on human orexin-2 receptor (setting [2]), 46 nM.

Take `CCOc1ncccc1-c1noc([C@@H]2CCCN2C(=O)c2cc(OC)c(C)cc2-n2nccn2)n1` [compound 215, {(S)-2-[3-(2-Ethoxy-pyridin-3-yl)-[1,2,4]oxadiazol-5-yl]-pyrrolidin-1-yl}-(5-methoxy-4-methyl-2-[1,2,3]triazol-2-yl-phenyl)-methanone]: the figures for the IC50 at orexin-1 (setting [1]) and on human orexin-2 receptor (setting [2]) were 18 nM and 3 nM, respectively.

In the case of `CCOc1ncccc1-c1noc([C@@H]2CCCN2C(=O)c2cccc(F)c2-c2ccn[nH]2)n1` [compound 216, {(S)-2-[3-(2-Ethoxy-pyridin-3-yl)-[1,2,4]oxadiazol-5-yl]-pyrrolidin-1-yl}-[3-fluoro-2-(2H-pyrazol-3-yl)-phenyl]-methanone], the IC50 at orexin-1 (setting [1]) stood at 76 nM; at human orexin-2 receptor (setting [2]), 27 nM.

Take `CCOc1ncccc1-c1noc([C@@H]2CCCN2C(=O)c2cc(C)ccc2-c2ccccn2)n1` [compound 217, {(S)-2-[3-(2-Ethoxy-pyridin-3-yl)-[1,2,4]oxadiazol-5-yl]-pyrrolidin-1-yl}-(5-methyl-2-pyridin-2-yl-phenyl)-methanone]: the values for the IC50 at orexin-1 (setting [1]) and at human orexin-2 receptor (setting [2]) were 40 nM and 14 nM, respectively.

Take `CCOc1ncccc1-c1noc([C@@H]2CCCN2C(=O)c2ccccc2-n2nccn2)n1` [compound 218, {(S)-2-[3-(2-Ethoxy-pyridin-3-yl)-[1,2,4]oxadiazol-5-yl]-pyrrolidin-1-yl}-(2-[1,2,3]triazol-2-yl-phenyl)-methanone]: the results for the IC50 at orexin-1 (setting [1]) and on human orexin-2 receptor (setting [2]) were 331 nM and 99 nM, respectively.

`CCOc1ncccc1-c1noc([C@@H]2CCCN2C(=O)c2cc(OC)ccc2-n2nccn2)n1` [compound 220, {(S)-2-[3-(2-Ethoxy-pyridin-3-yl)-[1,2,4]oxadiazol-5-yl]-pyrrolidin-1-yl}-(5-methoxy-2-[1,2,3]triazol-2-yl-phenyl)-methanone]: the IC50 on orexin-1 (setting [1]) came to 53 nM; at human orexin-2 receptor (setting [2]) it was 16 nM.

For the compound `CCOc1ncccc1-c1noc([C@@H]2CCCN2C(=O)c2ccc(C(F)(F)F)cc2-n2nccn2)n1` [compound 222, {(S)-2-[3-(2-Ethoxy-pyridin-3-yl)-[1,2,4]oxadiazol-5-yl]-pyrrolidin-1-yl}-(2-[1,2,3]triazol-2-yl-4-trifluoromethyl-phenyl)-methanone], the IC50 at orexin-1 (setting [1]) turned out to be 351 nM; at human orexin-2 receptor (setting [2]), 121 nM.

On to `CCOc1ncccc1-c1noc([C@@H]2CCCN2C(=O)c2cc(OC)c(F)cc2-n2nccn2)n1` [compound 223, {(S)-2-[3-(2-Ethoxy-pyridin-3-yl)-[1,2,4]oxadiazol-5-yl]-pyrrolidin-1-yl}-(4-fluoro-5-methoxy-2-[1,2,3]triazol-2-yl-phenyl)-methanone], for which the IC50 on orexin-1 (setting [1]) came to 253 nM; at human orexin-2 receptor (setting [2]), 17 nM.

Consider `CCOc1ncccc1-c1noc([C@@H]2CCCN2C(=O)c2cc(C)ccc2-c2ncco2)n1` [compound 224, {(S)-2-[3-(2-Ethoxy-pyridin-3-yl)-[1,2,4]oxadiazol-5-yl]-pyrrolidin-1-yl}-(5-methyl-2-oxazol-2-yl-phenyl)-methanone], for which the IC50 on orexin-1 (setting [1]) is 19 nM; on human orexin-2 receptor (setting [2]) it was 6 nM.

Consider `CCOc1ncccc1-c1noc([C@@H]2CCCN2C(=O)c2cc(F)cc(C)c2-n2nccn2)n1` [compound 225, {(S)-2-[3-(2-Ethoxy-pyridin-3-yl)-[1,2,4]oxadiazol-5-yl]-pyrrolidin-1-yl}-(5-fluoro-3-methyl-2-[1,2,3]triazol-2-yl-phenyl)-methanone], for which the values for the IC50 at orexin-1 (setting [1]) and at human orexin-2 receptor (setting [2]) were 964 nM and 600 nM, respectively.

On to `CCOc1ncccc1-c1noc([C@@H]2CCCN2C(=O)c2cc(OC)c(OC)cc2-n2nccn2)n1` [compound 226, (4,5-Dimethoxy-2-[1,2,3]triazol-2-yl-phenyl)-{(S)-2-[3-(2-ethoxy-pyridin-3-yl)-[1,2,4]oxadiazol-5-yl]-pyrrolidin-1-yl}-methanone], for which the concentration for half-maximal inhibition (IC50) on orexin-1 (setting [1]) stood at 160 nM; on human orexin-2 receptor (setting [2]), 148 nM.

As to `COc1ccccc1-c1noc([C@@H]2CCCN2C(=O)c2ccccc2-n2nccn2)n1` [compound 227, {(S)-2-[3-(2-Methoxy-phenyl)-[1,2,4]oxadiazol-5-yl]-pyrrolidin-1-yl}-(2-[1,2,3]triazol-2-yl-phenyl)-methanone], the figures for the IC50 on orexin-1 (setting [1]) and at human orexin-2 receptor (setting [2]) were 852 nM and 425 nM, respectively.

Turning to `COc1ccccc1-c1noc([C@@H]2CCCN2C(=O)c2cc(Cl)ccc2-n2nccn2)n1` [compound 228], the values for the half-maximal inhibitory concentration (IC50) on orexin-1 and at human orexin-2 receptor (setting [2]) were 272 nM and 134 nM, respectively.

As to `COc1ccccc1-c1noc([C@@H]2CCCN2C(=O)c2ccc(C)cc2-n2nccn2)n1` [compound 229, {(S)-2-[3-(2-Methoxy-phenyl)-[1,2,4]oxadiazol-5-yl]-pyrrolidin-1-yl}-(4-methyl-2-[1,2,3]triazol-2-yl-phenyl)-methanone], the IC50 stood at 163 nM at orexin-1 (setting [1]) and 240 nM at human orexin-2 receptor (setting [2]).

Consider `COc1ccccc1-c1noc([C@@H]2CCCN2C(=O)c2cc(C)c(C)cc2-n2nccn2)n1` [compound 230, (4,5-Dimethyl-2-[1,2,3]triazol-2-yl-phenyl)-{(S)-2-[3-(2-methoxy-phenyl)-[1,2,4]oxadiazol-5-yl]-pyrrolidin-1-yl}-methanone], for which the IC50 on orexin-1 (setting [1]) came out at 23 nM; on human orexin-2 receptor (setting [2]), 15 nM.

For the compound `COc1cc(C(=O)N2CCC[C@H]2c2nc(-c3ccccc3OC)no2)c(-n2nccn2)cc1C` [compound 231, (5-Methoxy-4-methyl-2-[1,2,3]triazol-2-yl-phenyl)-{(S)-2-[3-(2-methoxy-phenyl)-[1,2,4]oxadiazol-5-yl]-pyrrolidin-1-yl}-methanone], the IC50 came to 66 nM on orexin-1 (setting [1]) and 15 nM at human orexin-2 receptor (setting [2]).

`COc1ccc(-n2nccn2)c(C(=O)N2CCC[C@H]2c2nc(-c3ccccc3OC)no2)c1` [compound 232, {(S)-2-[3-(2-Methoxy-phenyl)-[1,2,4]oxadiazol-5-yl]-pyrrolidin-1-yl}-(5-methoxy-2-[1,2,3]triazol-2-yl-phenyl)-methanone]: the IC50 was found to be 134 nM on orexin-1 (setting [1]) and 78 nM at human orexin-2 receptor (setting [2]).

`COc1ccccc1-c1noc([C@@H]2CCCN2C(=O)c2cc(F)ccc2-n2nccn2)n1` [compound 233, (5-Fluoro-2-[1,2,3]triazol-2-yl-phenyl)-{(S)-2-[3-(2-methoxy-phenyl)-[1,2,4]oxadiazol-5-yl]-pyrrolidin-1-yl}-methanone]: the IC50 at orexin-1 (setting [1]) stood at 1410 nM; at human orexin-2 receptor (setting [2]), 341 nM.

Take `COc1ccccc1-c1noc([C@@H]2CCCN2C(=O)c2nc(C)ccc2-n2nccn2)n1` [compound 235, {(S)-2-[3-(2-Methoxy-phenyl)-[1,2,4]oxadiazol-5-yl]-pyrrolidin-1-yl}-(6-methyl-3-[1,2,3]triazol-2-yl-pyridin-2-yl)-methanone]: the 50% inhibitory concentration (IC50) at orexin-1 (setting [1]) worked out at 361 nM; at human orexin-2 receptor (setting [2]), 992 nM.

Consider `O=C(c1cc(Cl)ccc1-n1nccn1)N1CCC[C@H]1c1nc(-c2ccccc2Cl)no1` [compound 236], for which the IC50 on orexin-1 (setting [1]) stood at 1850 nM; on human orexin-2 receptor, 150 nM.

Regarding `Cc1ccc(C(=O)N2CCC[C@H]2c2nc(-c3ccccc3Cl)no2)c(-n2nccn2)c1` [compound 237], the IC50 on orexin-1 (setting [1]) is 844 nM; at human orexin-2 receptor (setting [2]) it was 186 nM.

As to `Cc1cc(C(=O)N2CCC[C@H]2c2nc(-c3ccccc3Cl)no2)c(-n2nccn2)cc1C` [compound 238], the figures for the IC50 at orexin-1 (setting [1]) and at human orexin-2 receptor (setting [2]) were 104 nM and 16 nM, respectively.

As for `COc1cc(C(=O)N2CCC[C@H]2c2nc(-c3ccccc3Cl)no2)c(-n2nccn2)cc1C` [compound 239], the IC50 at orexin-1 worked out at 378 nM; at human orexin-2 receptor (setting [2]), 24 nM.

As to `COc1ccc(-n2nccn2)c(C(=O)N2CCC[C@H]2c2nc(-c3ccccc3Cl)no2)c1` [compound 240], the IC50 on orexin-1 (setting [1]) came out at 1330 nM; at human orexin-2 receptor (setting [2]) it was 147 nM.

For the compound `Cc1ccc(-n2nccn2)c(C(=O)N2CCC[C@H]2c2nc(-c3ccccc3Cl)no2)n1` [compound 242], the IC50 on orexin-1 (setting [1]) is 4360 nM; at human orexin-2 receptor (setting [2]) it was 1440 nM.

For the compound `O=C(c1ccccc1-n1nccn1)N1CCC[C@H]1c1nc(-c2ccccc2Cl)no1` [compound 243], the IC50 on orexin-1 stood at 2680 nM; on human orexin-2 receptor it was 312 nM.

In the case of `Cc1c(F)cccc1-c1noc([C@@H]2CCCN2C(=O)c2ccccc2-n2nccn2)n1` [compound 244, {(S)-2-[3-(3-Fluoro-2-methyl-phenyl)-[1,2,4]oxadiazol-5-yl]-pyrrolidin-1-yl}-(2-[1,2,3]triazol-2-yl-phenyl)-methanone], the IC50 on orexin-1 (setting [1]) is 306 nM; at human orexin-2 receptor (setting [2]), 18 nM.

Regarding `Cc1c(F)cccc1-c1noc([C@@H]2CCCN2C(=O)c2cc(Cl)ccc2-n2nccn2)n1` [compound 245], the figures for the IC50 on orexin-1 and on human orexin-2 receptor (setting [2]) were 262 nM and 21 nM, respectively.

Turning to `Cc1ccc(C(=O)N2CCC[C@H]2c2nc(-c3cccc(F)c3C)no2)c(-n2nccn2)c1` [compound 246, {(S)-2-[3-(3-Fluoro-2-methyl-phenyl)-[1,2,4]oxadiazol-5-yl]-pyrrolidin-1-yl}-(4-methyl-2-[1,2,3]triazol-2-yl-phenyl)-methanone], the values for the half-maximal inhibitory concentration (IC50) at orexin-1 (setting [1]) and on human orexin-2 receptor (setting [2]) were 135 nM and 14 nM, respectively.
